These results are taken from publication PMC7203153, “Rational identification and characterisation of peptide ligands for targeting polysialic acid” (Scientific Reports, 2020).

Test [1] is described as follows: Peptide microarray affinity screening against α-2,8-PSA (colominic acid). It is filed as binding, Escherichia coli. The following applies: 10 μM CA. On the procedure: (§1) Peptide library synthesis, microarray preparation, and microarray screening were performed as described previously[25] with the following specifications. Siglec-related sequences were N-terminally acetylated to match the charge of the corresponding protein fragment. All peptides were printed in triplicate (60 nL spots), and each initial affinity screening was carried out at least three times. Screening was conducted with 10 μM colominic acid (CA; 5 mL per microarray), the Escherichia coli homolog of α-2,8-PSA identical in structure to human-derived PSA[67], and with antibody-based chemiluminescent detection of CA. For selectivity screening, microarrays were challenged with 10 μM CA with 0, 0.1, 1, and 10 μM α-2,8/9-PSA in separate conditions (5 mL total volume each), where molar concentrations were based on molecular weight estimation of synthesized 2,8/9-PSA (details on α-2,8/9-PSA production, purification, and analysis are provided in Supplementary Information). Selectivity screening with monomeric sialic acid was conducted with mass and molar equivalents of N-acetylneuraminic acid (Rose Scientific, Ltd.) along with 10 μM CA (5 mL total volume each). The mass equivalent amount of sialic acid (specifically, 970 μM sialic acid for a given volume of 10 μM CA) was calculated for CA of an average degree of polymerization of 100. For study of pH-dependent binding, affinity screening with CA was performed using PBS buffers of pH 6.0, 7.0, 7.4, and 8.0 (10 mM phosphate, 100 mM NaCl). The impact of NaCl on peptide binding was assessed at pH 7.4 with 0, 100, and 200 mM NaCl.
Microarray image and data analysis was performed as described. […] Of the triplicate experiments used to generate mean microarray affinity intensities in standard conditions (within each of which 762 peptides were represented in triplicate), 225 out of 762 values in one of these three experiments were derived from raw data previously reported, but were alternatively analysed as stated. Peptide isoelectric points were calculated with the EMBOSS iep program.

Test [2] in a line: Competitive microarray selectivity screening with α-2,8/9-PSA. It is filed as binding, Escherichia coli. The following applies: 10% competing α-2,8/9-PSA. On the procedure: Competitive microarray screening with α-2,8/9-PSA was conducted in order to assess selective binding of peptides to α-2,8-PSA. The definition of percent selectivity at 10% competing glycan was applied to enable selectivity comparisons amongst a larger set of peptides[25] […] However, the use of an isomeric polymer is a more stringent assessment of selectivity; here, selective binding is guided by three-dimensional conformation and not additionally by differences in functional groups.
as §1, with “NaCl. […]” for “NaCl.”

The next test can be described thus: FA assay with Neu5Ac. Format: binding. The following applies: absence of PSA; Neu5Ac up to 150 mM; PBS pH 7.4. On the procedure: (§2) a Neu5Ac concentration (µM) b Neu5Ac concentration (µM) c CS-A concentration (µM)
(§3) Supplementary Figure S4. (a–b) Interaction of I-P24 and I-P264 with Neu5Ac as asses sed by fluorescence anisotropy (FA) titrations in the (a) absence or (b ) presence of 500 µM P S A.
(§4) For a given volume, the highest concentration tested (150 mM) is approximately mass […]
(§5) equivalent to 1.5 mM PSA. […]
(§6) except for a small decrease in anisotropy at the highest concentrations of Neu 5Ac, indicating specific peptide binding to PSA. Error bars represent standard deviations from two independent experiments (0.15–15000 µM), with triplicate intra-as say measurements (0.15–150000 µM) .
(§7) (c) FA assay for binding of I-P24 and I-P264 to chondroitin sulphate A (CS-A). […] Anisotropies were determined from triplicate measurements (error bars excluded for clarity). […]
(§8) Asse ssment of selective binding of peptides with the FA assay is only presented in the context of alternative glycans as proof-of-principle above. However, given the comparatively lower sensitivity of microarray screening, FA may be employed for quantifying affinity in various buffers to asses s the effects of various ions, if any, on PSA binding. […]
(§9) (also on this page, place not known: Assessment assess assessed (b) Neu5Ac, PSA. intra-assay µM). assessment experiments, 5Ac (µM)a cNeu5Ac Anisotropy (mA) Anisotropy (mA) Anisotropy (mA)) […]

Test [3] is described as follows: FA assay with chondroitin sulphate A. The following applies: FA assay as for peptide–PSA; triplicate measurements; read-out: KD for binding to CS-A. As for the experimental part: as §2, §3, §4, §5, §6, §7, §8, §9

Marks after values point to notes of the source that are not given here. Where a SMILES comes first, the peptide text is derived from it. Where only a bound is given, the exact number is not on record here.

With `CC(=O)N[C@@H](Cc1ccccc1)C(=O)N[C@@H](CCCCN)C(=O)NCC(=O)N[C@@H](CCCNC(=N)N)C(=O)N[C@H](C(=O)N[C@@H](CO)C(=O)N1CCC[C@H]1C(=O)N[C@@H](CCCCN)C(=O)N[C@H](C(=O)NCC(=O)N[C@@H](C)C(=O)N1CCC[C@H]1C(=O)N[C@H](C(=O)N[C@@H](C)C(=O)N[C@H](C(N)=O)[C@@H](C)O)C(C)C)[C@@H](C)O)[C@@H](C)O` [I-P24] (Ac-FKGRTSPKTGAPVAT-NH2), in test [1] (pH 7.4), the “change in microarray binding with 200 mM vs 100 mM NaCl” value was “did not display any change in binding”. In addition, in test [1] (pH 7.4, 0 mM NaCl), the “microarray binding to PSA without NaCl” value is recorded as “detectable binding”. Moreover, the “microarray binding intensity (rank within library)” value in test [1] (762-peptide library, three independent screens, triplicate measurements) was “top 2%”. Further, the “selectivity mark in Table 1” value in test [2] is recorded as “I-P24* (Peptides with selectivity >80%)”. Moreover, in “FA assay with Neu5Ac”, the “binding to Neu5Ac by FA titration” value was “minimal”. The Kd in test [3] was more than 1000 µM.

A word on the Kd: it is the concentration at which binding is half-saturated.
